Each structure is given as a SMILES string.

In the first assay the test system is H358 cells. The assay can be described thus: Antiproliferative activity against H358 cells (Cell Titer Glow, ultra-low attachment plate). The format is cell-based. Conditions: Homo sapiens, NCI-H358, 72 h, three days after addition of compound. As to the method: 2500 H358 cells were seeded in a 96-well ultra-low attachment plate (corning, 7007). After one day of growth, a serially diluted compound (a maximum concentration of 5 μM, 5-fold dilution, a total of five doses) was added. Three days after the addition of the compound, Cell Titer Glow (Promega, G9681) was added to evaluate pellet growth, and the IC50 value was calculated.
For orientation: Cellular ATP, detected with luciferase, serves as a proxy for viable cell number.
One may read the IC50 as the concentration that inhibits the measured activity by half. High values mean weaker potency, low ones greater potency. Compound `C=CC(=O)N1CC2(CCN(c3nc(N4CC(CN5CCC5)C4)nc4c(OCC(F)(F)F)c(-c5c(C)ccc6[nH]ncc56)c(C5CC5)cc34)CC2)C1` [Compound 6] had an IC50 of less than 300 nM.

Take `C=CC(=O)N1CC2(CCN(c3nc(N4CC(OC5CN(C)C5)C4)nc4c(OCC(F)(F)F)c(-c5c(C)ccc6[nH]ncc56)c(C5CC5)cc34)CC2)C1` [Compound 14]: the IC50 is less than 300 nM.

For the compound `C=CC(=O)N1CC2(CCN(c3nc(N4CC(N5CC6(CC6)C5)C4)nc4c(OCC(F)(F)F)c(-c5c(C)ccc6[nH]ncc56)c(C5CC5)cc34)CC2)C1` [Compound 28], the IC50 is less than 300 nM.

`C=CC(=O)N1CC2(CCN(c3nc(N4CC(N5CC(O)C5)C4)nc4c(OCC(F)(F)F)c(-c5c(C)ccc6[nH]ncc56)c(C5CC5)cc34)CC2)C1` [Compound 44] had an IC50 of less than 300 nM.

`C=CC(=O)N1CC2(CCN(c3nc(N4CC(C)(N5CCC5)C4)nc4c(OCC(F)(F)F)c(-c5c(C)ccc6[nH]ncc56)c(C5CC5)cc34)CC2)C1` [Compound 60] returned an IC50 of less than 300 nM.

In turn, `C=CC(=O)N1CC2(CCN(c3nc(N4CC(N5CC6(CC6)C5)C4)nc4c(OCC(F)(F)F)c(-c5c(F)ccc6[nH]ncc56)c(C5CC5)cc34)CC2)C1` [Compound 103] returned an IC50 of less than 300 nM.

For `C=CC(=O)N1CC2(CCN(c3nc(N4CC5(CCCN5CC)C4)nc4c(OCC(F)(F)F)c(-c5c(C)ccc6[nH]ncc56)c(C5CC5)cc34)CC2)C1` [Compound 116], the IC50 was less than 300 nM.

In the case of `C=CC(=O)N1CC2(CCN(c3nc(N4CC5(CCCN5C(C)C)C4)nc4c(OCC(F)(F)F)c(-c5c(C)ccc6[nH]ncc56)c(C5CC5)cc34)CC2)C1` [Compound 117], the half-inhibitory concentration (IC50) is less than 300 nM.

Compound `C=CC(=O)N1CC2(CCN(c3nc(N4CC5(CCCN5CCF)C4)nc4c(OCC(F)(F)F)c(-c5c(C)ccc6[nH]ncc56)c(C5CC5)cc34)CC2)C1` [Compound 118] showed an IC50 of less than 300 nM.

Consider `C=CCN1CCCC12CN(c1nc(N3CCC4(CC3)CN(C(=O)C=C)C4)c3cc(C4CC4)c(-c4c(C)ccc5[nH]ncc45)c(OCC(F)(F)F)c3n1)C2` [Compound 119], for which the half-maximal inhibitory concentration (IC50) is less than 300 nM.

As for `C=CC(=O)N1CC2(CCN(c3nc(N4CC5(CCCN5C5CC5)C4)nc4c(OCC(F)(F)F)c(-c5c(C)ccc6[nH]ncc56)c(C5CC5)cc34)CC2)C1` [Compound 120], the IC50 is less than 300 nM.

The next assay concerns pERK level in H358 cells. The assay can be described thus: pERK and ERK protein content assay in H358 cells (ELISA). The format is cell-based. Conditions: Homo sapiens, NCI-H358, pERK/ERK ratio vs DMSO group, compound 1 μM, 24 h, read-out: Inhibition rate (%). The method, boiled down: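 Percent inhibition of pERK relative to DMSO, from the ELISA pERK/ERK ratio in lysed H358 cells. Compound applied at 1 μM for 24 h after one day of growth.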
In general terms: In an ELISA, binding on a coated surface is turned into a signal by an enzyme label.
Broadly, the inhibition is the relative decrease from the control value, in per cent. Regarding `C=CC(=O)N1CC2(CCN(c3nc(N4CC(CN5CCC5)C4)nc4c(OCC(F)(F)F)c(-c5c(C)ccc6[nH]ncc56)c(C5CC5)cc34)CC2)C1` [Compound 6], the inhibition at 1 µM is more than 90%.

On to `C=CC(=O)N1CC2(CCN(c3nc(N4CC(OC5CN(C)C5)C4)nc4c(OCC(F)(F)F)c(-c5c(C)ccc6[nH]ncc56)c(C5CC5)cc34)CC2)C1` [Compound 14], for which the inhibition at 1 µM is more than 90%.

On to `C=CC(=O)N1CC2(CCN(c3nc(N4CC(N5CC6(CC6)C5)C4)nc4c(OCC(F)(F)F)c(-c5c(C)ccc6[nH]ncc56)c(C5CC5)cc34)CC2)C1` [Compound 28], for which the inhibition at 1 µM was more than 90%.

On to `C=CC(=O)N1CC2(CCN(c3nc(N4CC(N5CC(O)C5)C4)nc4c(OCC(F)(F)F)c(-c5c(C)ccc6[nH]ncc56)c(C5CC5)cc34)CC2)C1` [Compound 44], for which the inhibition at 1 µM was more than 90%.

Consider `C=CC(=O)N1CC2(CCN(c3nc(N4CC(C)(N5CCC5)C4)nc4c(OCC(F)(F)F)c(-c5c(C)ccc6[nH]ncc56)c(C5CC5)cc34)CC2)C1` [Compound 60], for which the inhibition at 1 µM is more than 90%.

For `C=CC(=O)N1CC2(CCN(c3nc(N4CC(N5CC6(CC6)C5)C4)nc4c(OCC(F)(F)F)c(-c5c(F)ccc6[nH]ncc56)c(C5CC5)cc34)CC2)C1` [Compound 103], the inhibition at 1 µM is more than 90%.

For the compound `C=CC(=O)N1CC2(CCN(c3nc(N4CC5(CCCN5CC)C4)nc4c(OCC(F)(F)F)c(-c5c(C)ccc6[nH]ncc56)c(C5CC5)cc34)CC2)C1` [Compound 116], the inhibition at 1 µM is more than 90%.

On to `C=CC(=O)N1CC2(CCN(c3nc(N4CC5(CCCN5C(C)C)C4)nc4c(OCC(F)(F)F)c(-c5c(C)ccc6[nH]ncc56)c(C5CC5)cc34)CC2)C1` [Compound 117], for which the inhibition at 1 µM is more than 90%.

Turning to `C=CC(=O)N1CC2(CCN(c3nc(N4CC5(CCCN5CCF)C4)nc4c(OCC(F)(F)F)c(-c5c(C)ccc6[nH]ncc56)c(C5CC5)cc34)CC2)C1` [Compound 118], the inhibition at 1 µM was more than 90%.

As to `C=CCN1CCCC12CN(c1nc(N3CCC4(CC3)CN(C(=O)C=C)C4)c3cc(C4CC4)c(-c4c(C)ccc5[nH]ncc45)c(OCC(F)(F)F)c3n1)C2` [Compound 119], the inhibition at 1 µM is more than 90%.

Take `C=CC(=O)N1CC2(CCN(c3nc(N4CC5(CCCN5C5CC5)C4)nc4c(OCC(F)(F)F)c(-c5c(C)ccc6[nH]ncc56)c(C5CC5)cc34)CC2)C1` [Compound 120]: the inhibition at 1 µM is more than 90%.

For the next assay, the system named is human pancreatic cancer Mia PaCa-2 xenograft tumors. The experiment in a line: Antitumor activity in mice, Mia PaCa-2 xenograft. The following applies: 10 mg/kg, qd*21, intragastric, Mia PaCa-2 xenograft in nude mice. The format is in vivo. How it is done:
Human pancreatic cancer Mia PaCa-2 cells were cultured conventionally in 1640 medium containing 10% fetal bovine serum in a 37° C./5% CO2 incubator. After being subcultured, the cells were collected when they reached the desired amount. 1×10^7 Mia PaCa-2 cells were injected into the left dorsal side of each nude mouse, and the animals were randomly grouped for administration after tumors grew to 150 mm^3. The groups were as follows: 1) solvent control group, 8 mice; 2) compound 6 group, compound 14 group, compound 28 group, compound 44 group, compound 60 group, compound 103 group and control drug B (Example 35 in WO2018/143315), 8 mice in each group. The mice in the solvent control group was intragastrically administered with 0.5% CMC-Na once a day; and the mice in the compound groups were intragastrically administered with 0.5% CMC-Na suspension once a day. On Tuesday and Thursday each week, tumor volumes and body weight of the mice were measured, and the nude mice were sacrificed on day 21 during the treatment period.
For the compound `C=CC(=O)N1CC2(CCN(c3nc(N4CC(CN5CCC5)C4)nc4c(OCC(F)(F)F)c(-c5c(C)ccc6[nH]ncc56)c(C5CC5)cc34)CC2)C1` [Compound 6], the “Anti-tumor effect (regression)” value worked out at 35% regression.

As to `C=CC(=O)N1CC2(CCN(c3nc(N4CC(OC5CN(C)C5)C4)nc4c(OCC(F)(F)F)c(-c5c(C)ccc6[nH]ncc56)c(C5CC5)cc34)CC2)C1` [Compound 14], the “Anti-tumor effect (regression)” value was 37% regression.

For `C=CC(=O)N1CC2(CCN(c3nc(N4CC(N5CC6(CC6)C5)C4)nc4c(OCC(F)(F)F)c(-c5c(C)ccc6[nH]ncc56)c(C5CC5)cc34)CC2)C1` [Compound 28], the “Anti-tumor effect (regression)” value is 42% regression.

`C=CC(=O)N1CC2(CCN(c3nc(N4CC(N5CC(O)C5)C4)nc4c(OCC(F)(F)F)c(-c5c(C)ccc6[nH]ncc56)c(C5CC5)cc34)CC2)C1` [Compound 44]: the “Anti-tumor effect (regression)” value is on record as 23% regression.

As to `C=CC(=O)N1CC2(CCN(c3nc(N4CC(C)(N5CCC5)C4)nc4c(OCC(F)(F)F)c(-c5c(C)ccc6[nH]ncc56)c(C5CC5)cc34)CC2)C1` [Compound 60], the “Anti-tumor effect (regression)” value is on record as 30% regression.

`C=CC(=O)N1CC2(CCN(c3nc(N4CC(N5CC6(CC6)C5)C4)nc4c(OCC(F)(F)F)c(-c5c(F)ccc6[nH]ncc56)c(C5CC5)cc34)CC2)C1` [Compound 103]: the “Anti-tumor effect (regression)” value was 39% regression.

Staying with this assay, now noted: 10 mg/kg/day, 21 days, Mia PaCa-2 xenograft in nude mice.
In the case of `C=CC(=O)N1CC2(CCN(c3nc(N4CC(CN5CCC5)C4)nc4c(OCC(F)(F)F)c(-c5c(C)ccc6[nH]ncc56)c(C5CC5)cc34)CC2)C1` [Compound 6], the “in vivo activity compared with control drug B” value was “stronger in vivo activity than the control drug B”.

On to `C=CC(=O)N1CC2(CCN(c3nc(N4CC(OC5CN(C)C5)C4)nc4c(OCC(F)(F)F)c(-c5c(C)ccc6[nH]ncc56)c(C5CC5)cc34)CC2)C1` [Compound 14], for which the “in vivo activity compared with control drug B” value is on record as “stronger in vivo activity than the control drug B”.

Turning to `C=CC(=O)N1CC2(CCN(c3nc(N4CC(N5CC6(CC6)C5)C4)nc4c(OCC(F)(F)F)c(-c5c(C)ccc6[nH]ncc56)c(C5CC5)cc34)CC2)C1` [Compound 28], the “in vivo activity compared with control drug B” value was “stronger in vivo activity than the control drug B”.

`C=CC(=O)N1CC2(CCN(c3nc(N4CC(C)(N5CCC5)C4)nc4c(OCC(F)(F)F)c(-c5c(C)ccc6[nH]ncc56)c(C5CC5)cc34)CC2)C1` [Compound 60]: the “in vivo activity compared with control drug B” value was “stronger in vivo activity than the control drug B”.

As to `C=CC(=O)N1CC2(CCN(c3nc(N4CC(N5CC6(CC6)C5)C4)nc4c(OCC(F)(F)F)c(-c5c(F)ccc6[nH]ncc56)c(C5CC5)cc34)CC2)C1` [Compound 103], the “in vivo activity compared with control drug B” value is on record as “stronger in vivo activity than the control drug B”.

Source of the values: patent US12391692B2, “Spiro ring-containing quinazoline compound” (WIGEN BIOMEDICINE TECHNOLOGY (SHANGHAI) CO., LTD., priority 2020, dated 2025).
